Results taken from patent US20150126530A1, “Novel Substituted Imidazopyrimidines as Gpbar1 Receptor Modulators” (Torrent Pharmaceuticals Limited., priority 2011, published 2015).

Biological target: T1, human TGR5 (Homo sapiens, UniProt Q8TDU6)
T1 construct: host or cells: CHO cells (ATCC)
T1 sequence (Q8TDU6 1-330): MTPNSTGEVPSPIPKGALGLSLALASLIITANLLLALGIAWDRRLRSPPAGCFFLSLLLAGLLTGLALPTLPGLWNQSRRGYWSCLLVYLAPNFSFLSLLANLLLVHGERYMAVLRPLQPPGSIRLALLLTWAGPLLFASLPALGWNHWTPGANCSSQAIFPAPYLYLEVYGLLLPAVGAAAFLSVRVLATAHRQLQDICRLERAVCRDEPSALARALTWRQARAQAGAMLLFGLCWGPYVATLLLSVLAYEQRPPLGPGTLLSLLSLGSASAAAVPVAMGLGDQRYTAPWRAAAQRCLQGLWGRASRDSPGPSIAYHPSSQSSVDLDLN
Experiment: cAMP Responsive Element (CRE)-Reporter Assay
Assay type: cell-based
Details: luciferase activity relative to vehicle control, five hours, CHO cells transfected with human TGR5 and CRE-luciferase
Procedure: (A) cAMP Responsive Element (CRE)-Reporter Assay:
CHO cells (ATCC) were transfected with human TGR5 (oriGene) and CRE-luciferase reporter vector. Transfected cells were treated with vehicle control or test compounds (Conc 10 μM) for five hours and then lysed. Cell lysates were monitored for luciferase acivity. Increase in luciferase activity is considered as a result of TGR5 activation. Results were expressed as fold induction as compared to vehicle control.
Results are summarized in Table 2 where, + indicates 1.5-2 fold while ++, +++, ++++ indicate 2-3 fold, 3-4 fold, and >4 fold induction respectively relative to vehicle control when tested at 10 μM concentration.

Row | Structure (SMILES) | fold induction at 10 µM
1 | CN(C(=O)c1c(-c2ccccc2)nc2ncccn12)c1cccc(Cl)c1 [Compound no. 2, N-(3-chlorophenyl)-N-methyl-2-phenylimidazo[1,2-a]pyrimidine-3-carboxamide] | 3 to 4
2 | CN(C(=O)c1c(-c2ccccc2)nc2ncccn12)c1ccc(CC(=O)O)cc1 [Compound no. 3, (4-{methyl[(2-phenylimidazo[1,2-a]pyrimidin-3-yl)carbonyl]amino}phenyl)acetic acid] | 1.5 to 2
3 | CN(C(=O)c1c(-c2ccc(Cl)cc2)nc2ncccn12)c1ccc2c(c1)CCC2 [Compound no. 4, 2-(4-chlorophenyl)-N-(2,3-dihydro-1H-inden-5-yl)-N-methylimidazo[1,2-a]pyrimidine-3-carboxamide] | 3 to 4
4 | CN(C(=O)c1c(-c2ccc(Cl)cc2)nc2ncccn12)c1ccc(Cl)cc1 [Compound no. 5, N,2-bis(4-chlorophenyl)-N-methylimidazo[1,2-a]pyrimidine-3-carboxamide] | > 4
5 | CN(C(=O)c1c(-c2ccc(F)cc2)nc2ncccn12)c1ccc2c(c1)CCC2 [Compound no. 6, N-(2,3-dihydro-1H-inden-5-yl)-2-(4-fluorophenyl)-N-methylimidazo[1,2-a]pyrimidine-3-carboxamide] | 3 to 4
6 | CN(C(=O)c1c(-c2ccccn2)nc2ncccn12)c1ccc(Cl)cc1 [Compound no. 11, N-(4-chlorophenyl)-N-methyl-2-(pyridin-2-yl)imidazo[1,2-a]pyrimidine-3-carboxamide] | 1.5 to 2
7 | CN(C(=O)c1c(Oc2ccc(F)cc2)nc2ncccn12)c1ccc(F)cc1F [Compound no. 46, N-(2,4-difluorophenyl)-2-(4-fluorophenoxy)-N-methylimidazo[1,2-a]pyrimidine-3-carboxamide] | 2 to 3
8 | CN(C(=O)c1c(-c2ccc(-c3ccccc3)cc2)nc2ncccn12)c1ccc(Cl)cc1 [compound 8, 2-(biphenyl-4-yl)-N-(4-chlorophenyl)-N-methylimidazo[1,2-a]pyrimidine-3-carboxamide] | 3 to 4
9 | CN(C(=O)c1c(-c2ccc(-c3ccccc3)cc2)nc2ncccn12)c1ccc2c(c1)CCC2 [compound 9, 2-(biphenyl-4-yl)-N-(2,3-dihydro-1H-inden-5-yl)-N-methylimidazo[1,2-a]pyrimidine-3-carboxamide] | 2 to 3
10 | COc1ccc(-c2nc3ncccn3c2C(=O)N(C)c2ccc(Cl)cc2)cc1OC [compound 10, N-(4-chlorophenyl)-2-(3,4-dimethoxyphenyl)-N-methylimidazo[1,2-a]pyrimidine-3-carboxamide] | 3 to 4
11 | CN(C(=O)c1c(-c2ccccc2)nc2ncc(-c3ccccc3)cn12)c1ccc(Cl)cc1 [compound 12, N-(4-chlorophenyl)-N-methyl-2,6-diphenylimidazo[1,2-a]pyrimidine-3-carboxamide] | 2 to 3
12 | COc1ccc(-c2nc3ncccn3c2C(=O)N(C)c2ccc3c(c2)CCC3)cc1OC [compound 13, N-(2,3-dihydro-1H-inden-5-yl)-2-(3,4-dimethoxyphenyl)-N-methylimidazo[1,2-a]pyrimidine-3-carboxamide] | 3 to 4
13 | CN(C(=O)c1c(-c2ccc(Cl)c(Cl)c2)nc2ncccn12)c1ccc(Cl)cc1 [compound 14, N-(4-chlorophenyl)-2-(3,4-dichlorophenyl)-N-methylimidazo[1,2-a]pyrimidine-3-carboxamide] | 3 to 4
14 | CN(C(=O)c1c(-c2ccc(O)c(O)c2)nc2ncccn12)c1ccc2c(c1)CCC2 [compound 15, N-(2,3-dihydro-1H-inden-5-yl)-2-(3,4-dihydroxyphenyl)-N-methylimidazo[1,2-a]pyrimidine-3-carboxamide] | 2 to 3
15 | COc1ccc(-c2nc3ncccn3c2C(=O)N(C)c2ccc(Cl)cc2)cc1 [compound 16, N-(4-chlorophenyl)-2-(4-methoxyphenyl)-N-methylimidazo[1,2-a]pyrimidine-3-carboxamide] | 2 to 3
16 | CN(C(=O)c1c(-c2ccccn2)nc2ncccn12)c1ccc2c(c1)CCC2 [compound 17, N-(2,3-dihydro-1H-inden-5-yl)-N-methyl-2-(pyridin-2-yl)imidazo[1,2-a]pyrimidine-3-carboxamide] | 2 to 3
17 | CN(C(=O)c1c(-c2ccc(Cl)cc2)nc2ncccn12)c1ccc(F)cc1 [compound 18, 2-(4-chlorophenyl)-N-(4-fluorophenyl)-N-methylimidazo[1,2-a]pyrimidine-3-carboxamide] | 2 to 3
18 | COc1ccc(N(C)C(=O)c2c(-c3ccc(Cl)cc3)nc3ncccn23)cc1OC [compound 19, 2-(4-chlorophenyl)-N-(3,4-dimethoxyphenyl)-N-methylimidazo[1,2-a]pyrimidine-3-carboxamide] | 2 to 3

Row | Structure (SMILES) | fold induction at 10 µM
19 | CN(C(=O)c1c(-c2cccnc2)nc2ncccn12)c1ccc(Cl)cc1 [compound 20, N-(4-chlorophenyl)-N-methyl-2-(pyridin-3-yl)imidazo[1,2-a]pyrimidine-3-carboxamide] | 2 to 3
20 | CN(C(=O)c1c(-c2ccc(Cl)cc2Cl)nc2ncccn12)c1ccc(F)cc1 [compound 21, 2-(2,4-dichlorophenyl)-N-(4-fluorophenyl)-N-methylimidazo[1,2-a]pyrimidine-3-carboxamide] | 3 to 4
21 | CN(C(=O)c1c(-c2ccccc2C(F)(F)F)nc2ncccn12)c1ccc(Cl)cc1 [compound 23, N-(4-chlorophenyl)-N-methyl-2-[2-(trifluoromethyl)phenyl]imidazo[1,2-a]pyrimidine-3-carboxamide] | 3 to 4
22 | CN(C(=O)c1c(-c2ccc(Cl)cc2)nc2ncccn12)c1ccc(S(=O)(=O)N(C)C)cc1 [compound 24, 2-(4-chlorophenyl)-N-[4-(dimethylsulfamoyl)phenyl]-N-methylimidazo[1,2-a]pyrimidine-3-carboxamide] | 2 to 3
23 | COc1ccc(N(C)C(=O)c2c(-c3ccc(Cl)cc3)nc3ncccn23)c(OC)c1 [compound 25, 2-(4-chlorophenyl)-N-(2,4-dimethoxyphenyl)-N-methylimidazo[1,2-a]pyrimidine-3-carboxamide] | 2 to 3
24 | CN(C(=O)c1c(-c2ccccc2)nc2ncccn12)c1ccc(F)cc1 [compound 26, N-(4-fluorophenyl)-N-methyl-2-phenylimidazo[1,2-a]pyrimidine-3-carboxamide] | 2 to 3
25 | CN(C(=O)c1c(-c2ccc(Cl)cc2)nc2ncccn12)c1ccc(O)c(O)c1 [compound 27, 2-(4-chlorophenyl)-N-(3,4-dihydroxyphenyl)-N-methylimidazo[1,2-a]pyrimidine-3-carboxamide] | 1.5 to 2
26 | CN(C(=O)c1c(-c2ccc3c(c2)OCO3)nc2ncccn12)c1ccc(Cl)cc1 [compound 29, 2-(1,3-benzodioxol-5-yl)-N-(4-chlorophenyl)-N-methylimidazo[1,2-a]pyrimidine-3-carboxamide] | 3 to 4
27 | CN(C(=O)c1c(-c2cccc(C(F)(F)F)c2)nc2ncccn12)c1ccc(Cl)cc1 [compound 31, N-(4-chlorophenyl)-N-methyl-2-[3-(trifluoromethyl)phenyl]imidazo[1,2-a]pyrimidine-3-carboxamide] | 3 to 4
28 | O=C(Nc1ccc(Cl)cc1)c1c(-c2ccc(F)cc2)nc2ncccn12 [compound 32, N-(4-chlorophenyl)-2-(4-fluorophenyl)imidazo[1,2-a]pyrimidine-3-carboxamide] | 1.5 to 2
29 | COc1ccc(NC(=O)c2c(-c3ccc(F)cc3)nc3ncccn23)c(OC)c1 [compound 34, N-(2,4-dimethoxyphenyl)-2-(4-fluorophenyl)imidazo[1,2-a]pyrimidine-3-carboxamide] | 1.5 to 2
30 | CN(C(=O)c1c(-c2cccc(C#N)c2)nc2ncccn12)c1ccc(F)cc1 [compound 35, 2-(3-cyanophenyl)-N-(4-fluorophenyl)-N-methylimidazo[1,2-a]pyrimidine-3-carboxamide] | 2 to 3
31 | CN(C(=O)c1c(-c2ccc(S(=O)(=O)N(C)C)cc2)nc2ncccn12)c1ccc(Cl)cc1 [compound 37, N-(4-chlorophenyl)-2-[4-(dimethylsulfamoyl)phenyl]-N-methylimidazo[1,2-a]pyrimidine-3-carboxamide] | 1.5 to 2
32 | CN(C(=O)c1c(-c2ccc(S(=O)(=O)N(C)C)cc2)nc2ncccn12)c1ccc(F)cc1 [compound 38, 2-[4-(dimethylsulfamoyl)phenyl]-N-(4-fluorophenyl)-N-methylimidazo[1,2-a]pyrimidine-3-carboxamide] | 1.5 to 2
33 | O=C(Nc1ccc(F)cc1F)c1c(-c2ccc(F)cc2)nc2ncccn12 [compound 39, N-(2,4-difluorophenyl)-2-(4-fluorophenyl)imidazo[1,2-a]pyrimidine-3-carboxamide] | 1.5 to 2
34 | CN(C(=O)c1c(-c2ccc(F)cc2)nc2ncccn12)c1ccc(F)cc1F [compound 40, N-(2,4-difluorophenyl)-2-(4-fluorophenyl)-N-methylimidazo[1,2-a]pyrimidine-3-carboxamide] | 2 to 3
35 | COc1ccc(-c2nc3ncccn3c2C(=O)N(C)c2ccc(F)cc2)cc1F [compound 41, 2-(3-fluoro-4-methoxyphenyl)-N-(4-fluorophenyl)-N-methylimidazo[1,2-a]pyrimidine-3-carboxamide] | 2 to 3
